Assay results taken from publication PMC9794833, “Ligand recognition and activation of neuromedin U receptor 2” (Nature Communications, 2022).
Where “and” joins values, the source holds several entries; their conditions need not be identical. Equal values may be shown once. Read-outs that look alike come from different tables or passages of the source. Where a SMILES comes first, the peptide text is derived from it. [ ]: non-standard residue; d: D form. The star is where a group is joined. Propanoyl(3-cHex) = O=C(CCC1CCCCC1)*; Dap = NC[C@H](N)C(=O)O

Columns and labels:
NMU2 [1] = biological target: T1, NMU2 (Homo sapiens, UniProt Q9GZQ4); test: TRUPATH Gαi1βγ biosensor assay, WT NMU2; assay type: cell-based; settings: WT; for CPN 116–induced G protein activation of NMU2: single replicates, in % (unit assumed)
T1 construct: HA signal peptide (N); expressed in transfected cells; host or cells: HEK 293F
T1 sequence (Q9GZQ4 whole entry): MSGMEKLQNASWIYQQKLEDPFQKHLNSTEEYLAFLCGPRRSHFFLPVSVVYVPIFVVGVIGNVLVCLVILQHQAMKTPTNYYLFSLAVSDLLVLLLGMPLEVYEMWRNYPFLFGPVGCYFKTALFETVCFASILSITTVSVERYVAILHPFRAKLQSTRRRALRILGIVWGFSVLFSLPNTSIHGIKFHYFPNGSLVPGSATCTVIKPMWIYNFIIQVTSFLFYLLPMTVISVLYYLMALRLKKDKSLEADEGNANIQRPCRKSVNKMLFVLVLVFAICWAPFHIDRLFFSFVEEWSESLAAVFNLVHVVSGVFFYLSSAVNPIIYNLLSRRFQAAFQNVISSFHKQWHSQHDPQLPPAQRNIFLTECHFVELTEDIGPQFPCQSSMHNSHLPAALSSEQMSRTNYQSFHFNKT
Protocol: (§1) The plasmids of Gαi1, Gβ3, and Gγ9 used for the TRUPATH assay were purchased from Addgene (TRUPATH Kit, #1000000163). NMU2 constructs of WT and mutants were constructed into a PTT5 vector (Invitrogen) with an N-terminal HA signal peptide followed by a Flag tag. HEK 293F cells were transiently transfected with WT or mutants of NMU2, Gαi1, Gβ3, and Gγ9 at an […] ratio of 4:1:1:1 with a total of 3500 ng plasmid DNA using a transfection reagent (PEI MAX 2000, Polysciences) and cultivated at 37 °C with 5 % CO2. Cells were collected after 48-h transfection. The expression level of the receptor was measured by incubating 10 μl cells with 15 μl TBS buffer supplemented with 4% bovine serum albumin, 20% (v/v) viability staining solution7-AAD (Invitrogen, Cat#00-6993-50), and ANTI-FLAG M2-FITC antibody (Sigma, F4049; 1:100 diluted by TBS) at 4 °C for 20 min. After incubation, 175 μl TBS buffer was added, and the fluorescence signal on the cell surface was detected by an FCM (flow cytometry) reader (Millipore). The cells were diluted with 1× HBSS (Hank’s balanced salt solution) balanced buffer supplemented with 25 mM HEPES, pH 7.4, and seeded onto the 96-well opaque cell culture plates (Beyotime) at a density of 18,000 cells per well by 60 μl. Freshly prepared 50 μM coelenterazine 400a (Nanolight Technologies) was added into the well by 10 μl. After a 5 min equilibration time in the darkness, plates were then read in a Synerg^TM H1 microplate reader (BioTek) with excitation at 395 nm and emission at 410 and 515 nm by serially three times. Then, 30 μl of 3.3× agonists were added into the wells with a gradient final concentration from 10^−4–10^−13 M. Plates were read immediately again by serially five times. Data were processed and analyzed following the method in the literature by using GraphPad Prism 8.0.

NMU2 H43E = biological target: T2, NMU2 H43E (Homo sapiens, UniProt Q9GZQ4, H43E); test: TRUPATH assay, NMU2 mutant H43E; assay type: cell-based; settings: H43E
T2 construct: HA signal peptide (N); expressed in transfected cells; host or cells: HEK 293F
T2 sequence (Q9GZQ4 whole entry H43E): as the sequence (Q9GZQ4 whole entry) above, with H43E counted along it
Protocol: as §1

NMU2 H43W = biological target: T3, NMU2 H43W (Homo sapiens, UniProt Q9GZQ4, H43W); test: TRUPATH assay, NMU2 mutant H43W; assay type: cell-based
T3 construct: HA signal peptide (N); expressed in transfected cells; host or cells: HEK 293F
T3 sequence (Q9GZQ4 whole entry H43W): as the sequence (Q9GZQ4 whole entry) above, with H43W counted along it
Protocol: as §1

NMU2 A302H = biological target: T4, NMU2 A302H (Homo sapiens, UniProt Q9GZQ4, A302H); test: TRUPATH assay, NMU2 mutant A302H; assay type: cell-based
T4 construct: HA signal peptide (N); expressed in transfected cells; host or cells: HEK 293F
T4 sequence (Q9GZQ4 whole entry A302H): as the sequence (Q9GZQ4 whole entry) above, with A302H counted along it
Protocol: as §1

NMU2 N306Q = biological target: T5, NMU2 N306Q (Homo sapiens, UniProt Q9GZQ4, N306Q); test: TRUPATH assay, NMU2 mutant N306Q; assay type: cell-based
T5 construct: HA signal peptide (N); expressed in transfected cells; host or cells: HEK 293F
T5 sequence (Q9GZQ4 whole entry N306Q): as the sequence (Q9GZQ4 whole entry) above, with N306Q counted along it
Protocol: as §1

NMU2 N306W = biological target: T6, NMU2 N306W (Homo sapiens, UniProt Q9GZQ4, N306W); test: TRUPATH assay, NMU2 mutant N306W; assay type: cell-based
T6 construct: HA signal peptide (N); expressed in transfected cells; host or cells: HEK 293F
T6 sequence (Q9GZQ4 whole entry N306W): as the sequence (Q9GZQ4 whole entry) above, with N306W counted along it
Protocol: as §1

NMU2 [2] = biological target: T1, NMU2; design: method as in PMID 24999562, PMID 25815150, PMID 28548497; settings: potency for NMU2; cited from earlier work
NMU1 = test system: NMU1; design: method as in PMID 24999562, PMID 25815150, PMID 28548497; settings: cited from earlier work
[3] = read-out: pEC50 mean±SEM (converted)
[4] = earlier manuscript version, peer review file

CC(C)C[C@H](NC(=O)CCC1CCCCC1)C(=O)N[C@@H](CC(C)C)C(=O)N[C@@H](CN)C(=O)N1CCC[C@H]1C(=O)N[C@@H](CCCNC(=N)N)C(=O)N[C@@H](CC(N)=O)C(N)=O [CPN 116] ({Propanoyl(3-cHex)}-LL[Dap]PRN-NH2; N-terminus assumed)
EC50 ratio EC50(mutant)/EC50(WT) (NMU2 [1]): 1
Span (window between Emax and minimal agonist response) (NMU2 [1]): 100±5 % of WT
CPN 116–induced G protein activation of NMU2 (NMU2 [1]; Log [CPN 116] M -4): 124.271 and 109.389 and 104.836 and 98.7874 and 114.415 and 92.1354 and 98.8516 and 96.9846 and 129.092
CPN 116–induced G protein activation of NMU2 (NMU2 [1]; Log [CPN 116] M -5): 81.0668 and 90.6105 and 83.9029 and 70.7281 and 97.1643 and 105.033 and 97.1976 and 102.389 and 91.9125
CPN 116–induced G protein activation of NMU2 (NMU2 [1]; Log [CPN 116] M -6): 123.537 and 69.0158 and 98.755 and 109.275 and 101.527 and 90.1601 and 88.5457 and 99.457 and 76.0968 and 66.3324
CPN 116–induced G protein activation of NMU2 (NMU2 [1]; Log [CPN 116] M -7): 58.8924 and 38.0271 and 51.0097 and 20.9117 and 20.6245 and 99.7769 and 42.6311 and 75.7485 and 28.5134 and 61.3823
CPN 116–induced G protein activation of NMU2 (NMU2 [1]; Log [CPN 116] M -8): 61.8786 and 27.1582 and 20.07 and 29.5038 and 13.1206 and 29.1828 and -9.383 and 21.3054 and 11.8363 and 17.7072
CPN 116–induced G protein activation of NMU2 (NMU2 [1]; Log [CPN 116] M -9): 19.9062 and -6.919 and 9.364 and -2.803 and 20.3603 and -10.3226 and 21.8665 and -7.72 and -11.2532 and 17.6747
CPN 116–induced G protein activation of NMU2 (NMU2 [1]; Log [CPN 116] M -10): 41.8708 and 6.201 and -13.4099 and 3.958 and 1.871 and 13.514 and 0.4422 and 6.532 and 9.793 and -10.7717
CPN 116–induced G protein activation of NMU2 (NMU2 [1]; Log [CPN 116] M -11): -45.0449 and -20.5889 and -0.1978 and -15.7237 and -24.3777 and 3.048 and -8.327 and 4.148 and -6.043 and -10.0645
EC50 (NMU2 [1]; agonist-induced G protein activation, HEK 293F, read-out: EC50): 88 nM
EC50 (NMU2 [1]; [3]): 89.1 nM
EC50 ratio EC50(mutant)/EC50(WT) (NMU2 H43E): 34 and ~30
Span (window between Emax and minimal agonist response) (NMU2 H43E): 68±10 % of WT
G protein activation (TRUPATH), dose-response point (NMU2 H43E; Log [agonist] M -4): 54.8659 and 69.4702 and 83.0554
reduction of potency (NMU2 H43E; [4]): about 40 fold
EC50 (NMU2 H43E; read-out: EC50): 3010 nM
EC50 (NMU2 H43E; [3]): 3020 nM
EC50 ratio EC50(mutant)/EC50(WT) (NMU2 H43W): 4
Span (window between Emax and minimal agonist response) (NMU2 H43W): 113±8 % of WT
G protein activation (TRUPATH), dose-response point (NMU2 H43W; Log [agonist] M -4): 70.3208 and 118.253 and 100.643 and 93.456
G protein activation (TRUPATH), dose-response point (NMU2 H43W; Log [agonist] M -5): 117.081 and 116.835 and 123.722 and 102.53
EC50 (NMU2 H43W; read-out: EC50): 328 nM
EC50 (NMU2 H43W; [3]): 331 nM
EC50 ratio EC50(mutant)/EC50(WT) (NMU2 A302H): 10
Span (window between Emax and minimal agonist response) (NMU2 A302H): 57±12 % of WT
EC50 (NMU2 A302H; read-out: EC50): 890 nM
EC50 (NMU2 A302H; [3]): 891 nM
EC50 ratio EC50(mutant)/EC50(WT) (NMU2 N306Q): 34 and ~30
Span (window between Emax and minimal agonist response) (NMU2 N306Q): 103±8 % of WT
G protein activation (TRUPATH), dose-response point (NMU2 N306Q; Log [agonist] M -4): 92.4083 and 98.1528 and 132.361 and 88.4481
G protein activation (TRUPATH), dose-response point (NMU2 N306Q; Log [agonist] M -5): 86.2104 and 99.9961 and 102.907 and 71.1922
reduction of potency (NMU2 N306Q; [4]): about 40 fold
EC50 (NMU2 N306Q; read-out: EC50): 3030 nM
EC50 (NMU2 N306Q; [3]): 3020 nM
CPN 116–induced G protein activation of NMU2 (NMU2 N306W; Log [CPN 116] M -4, single replicates): -39.3918 and -40.1037 and -18.108
CPN 116–induced G protein activation of NMU2 (NMU2 N306W; Log [CPN 116] M -5, single replicates): -35.463 and -12.1167 and -20.5536
CPN 116–induced G protein activation of NMU2 (NMU2 N306W; Log [CPN 116] M -6, single replicates): -13.9347 and -29.6651
CPN 116–induced G protein activation of NMU2 (NMU2 N306W; Log [CPN 116] M -7, single replicates): -42.0373 and -15.8433 and -22.9653
CPN 116–induced G protein activation of NMU2 (NMU2 N306W; Log [CPN 116] M -8, single replicates): -43.5336 and -18.6278
CPN 116–induced G protein activation of NMU2 (NMU2 N306W; Log [CPN 116] M -9, single replicates): -58.7333 and -19.6009 and -22.809
CPN 116–induced G protein activation of NMU2 (NMU2 N306W; Log [CPN 116] M -10, single replicates): -49.0206 and -44.7808 and -17.6453
CPN 116–induced G protein activation of NMU2 (NMU2 N306W; Log [CPN 116] M -11, single replicates): -6.043 and -10.0645 and -20.5889
EC50 (NMU2 [2]): 6.6 nM
activation of NMU1 (NMU1): without obvious activation of NMU1
